Laboratory results from PubChem BioAssay (NCI).
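Growth conditions: 96-well plates. Treatment: test compound, 48 hours, 5 concentrations. Analysis: linear interpolation between bracketing concentrations; unreached endpoints set to highest concentration. Abbreviation: GI50, concentration required for 50% inhibition of growth. TGI: concentration producing complete growth inhibition.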

How the values were obtained:
Assay in all cases: NCI anticancer screen, dose series, 48 h; in the data active means GI50 below about 0.43 µM; inactive means the rest
UO-31 renal = system: UO-31 renal
RXF 393 renal = system: RXF 393 renal
HCT-116 colon = system: HCT-116 colon
786-0 renal = system: 786-0 renal
K-562 leukemia = system: K-562 leukemia
RPMI-8226 leukemia = system: RPMI-8226 leukemia
SN12C renal = system: SN12C renal
HCC-2998 colon = system: HCC-2998 colon
HS 578T breast = system: HS 578T breast
SNB-75 CNS = system: SNB-75 CNS
HOP-92 NSCLC = system: HOP-92 NSCLC
SK-OV-3 ovarian = system: SK-OV-3 ovarian
A498 renal = system: A498 renal
CAKI-1 renal = system: CAKI-1 renal
OVCAR-3 ovarian = system: OVCAR-3 ovarian
CCRF-CEM leukemia = system: CCRF-CEM leukemia
ACHN renal = system: ACHN renal
MDA-MB-231 breast = system: MDA-MB-231 breast
SF-268 CNS = system: SF-268 CNS
PC-3 prostate = system: PC-3 prostate
OVCAR-8 ovarian = system: OVCAR-8 ovarian
NCI-H23 lung = system: NCI-H23 lung
SK-MEL-28 melanoma = system: SK-MEL-28 melanoma
UACC-257 melanoma = system: UACC-257 melanoma
SW-620 colon = system: SW-620 colon
A549 NSCLC = system: A549 NSCLC
MCF7 breast = system: MCF7 breast
M14 melanoma = system: M14 melanoma
UACC-62 melanoma = system: UACC-62 melanoma
EKVX NSCLC = system: EKVX NSCLC
SR leukemia = system: SR leukemia
OVCAR-5 ovarian = system: OVCAR-5 ovarian
SK-MEL-5 melanoma = system: SK-MEL-5 melanoma
HL-60(TB) leukemia = system: HL-60(TB) leukemia
NCI-H460 lung = system: NCI-H460 lung
NCI-H226 lung = system: NCI-H226 lung
COLO 205 colon = system: COLO 205 colon
T-47D breast = system: T-47D breast
HCT-15 colon = system: HCT-15 colon
TK-10 renal = system: TK-10 renal
BT-549 breast = system: BT-549 breast
MOLT-4 leukemia = system: MOLT-4 leukemia
SF-295 CNS = system: SF-295 CNS
DU-145 prostate = system: DU-145 prostate
U251 CNS = system: U251 CNS
HOP-62 NSCLC = system: HOP-62 NSCLC
NCI-H522 lung = system: NCI-H522 lung
MDA-MB-435 = system: MDA-MB-435
MALME-3M melanoma = system: MALME-3M melanoma
HT29 colon = system: HT29 colon
KM12 colon = system: KM12 colon
LOX IMVI melanoma = system: LOX IMVI melanoma
NCI/ADR-RES ovarian = system: NCI/ADR-RES ovarian
OVCAR-4 ovarian = system: OVCAR-4 ovarian
SNB-19 CNS = system: SNB-19 CNS

N#Cc1c(-c2ccccc2)nc(SCC(O)CN2CCOCC2)nc1N1CCOCC1 (centres undefined)
41.6 µM: TGI (RPMI-8226 leukemia)
7.7 µM: TGI (PC-3 prostate)
63.2 µM: TGI (HS 578T breast)
11.1 µM: TGI (SNB-75 CNS)
> 100 µM: TGI (UO-31 renal) | TGI (HCT-116 colon) | TGI (786-0 renal) | TGI (K-562 leukemia) | TGI (SN12C renal) | TGI (HCC-2998 colon) | TGI (OVCAR-3 ovarian) | TGI (CCRF-CEM leukemia) | TGI (ACHN renal) | TGI (MDA-MB-231 breast) | TGI (SF-268 CNS) | TGI (OVCAR-8 ovarian) | TGI (NCI-H23 lung) | TGI (SK-MEL-28 melanoma) | TGI (SW-620 colon) | TGI (A549 NSCLC) | TGI (M14 melanoma) | TGI (UACC-62 melanoma) | TGI (EKVX NSCLC) | TGI (SR leukemia) | TGI (OVCAR-5 ovarian) | TGI (NCI-H460 lung) | TGI (NCI-H226 lung) | TGI (HCT-15 colon) | TGI (TK-10 renal) | TGI (BT-549 breast) | TGI (MOLT-4 leukemia) | TGI (SF-295 CNS) | TGI (DU-145 prostate) | TGI (U251 CNS) | TGI (HOP-62 NSCLC) | TGI (NCI-H522 lung) | TGI (MDA-MB-435) | TGI (MALME-3M melanoma) | TGI (HT29 colon) | TGI (KM12 colon) | TGI (LOX IMVI melanoma) | TGI (NCI/ADR-RES ovarian) | TGI (OVCAR-4 ovarian)
45.7 µM: TGI (UACC-257 melanoma)
inactive: GI50 (UO-31 renal) 1.54 µM | GI50 (RXF 393 renal) 5.55 µM | GI50 (HCT-116 colon) 32.4 µM | GI50 (786-0 renal) 14.8 µM | GI50 (K-562 leukemia) 20 µM | GI50 (RPMI-8226 leukemia) 7.78 µM | GI50 (SN12C renal) 18.9 µM | GI50 (HCC-2998 colon) 47 µM | GI50 (HS 578T breast) 6.22 µM | GI50 (SNB-75 CNS) 1.36 µM | GI50 (HOP-92 NSCLC) 0.442 µM | GI50 (SK-OV-3 ovarian) 1.87 µM | GI50 (A498 renal) 2.43 µM | GI50 (CAKI-1 renal) 1.67 µM | GI50 (OVCAR-3 ovarian) 15.4 µM | GI50 (CCRF-CEM leukemia) 88 µM | GI50 (ACHN renal) 10.8 µM | GI50 (MDA-MB-231 breast) 8.36 µM | GI50 (SF-268 CNS) 17.8 µM | GI50 (PC-3 prostate) 2.42 µM | GI50 (OVCAR-8 ovarian) 11.4 µM | GI50 (NCI-H23 lung) 37.5 µM | GI50 (SK-MEL-28 melanoma) 11.2 µM | GI50 (UACC-257 melanoma) 2.88 µM | GI50 (SW-620 colon) 51.9 µM | GI50 (A549 NSCLC) 6.43 µM | GI50 (M14 melanoma) 50 µM | GI50 (UACC-62 melanoma) 3.55 µM | GI50 (EKVX NSCLC) 7.52 µM | GI50 (SR leukemia) 32.2 µM | GI50 (OVCAR-5 ovarian) 19 µM | GI50 (SK-MEL-5 melanoma) 2.99 µM | GI50 (HL-60(TB) leukemia) 4.05 µM | GI50 (NCI-H460 lung) 7.03 µM | GI50 (NCI-H226 lung) 7.12 µM | GI50 (COLO 205 colon) 29.6 µM | GI50 (T-47D breast) 1.33 µM | GI50 (HCT-15 colon) 9.16 µM | GI50 (TK-10 renal) 10.9 µM | GI50 (BT-549 breast) 7.26 µM | GI50 (MOLT-4 leukemia) 16.1 µM | GI50 (SF-295 CNS) 5.49 µM | GI50 (DU-145 prostate) 24.5 µM | GI50 (U251 CNS) 24.4 µM | GI50 (HOP-62 NSCLC) 29 µM | GI50 (NCI-H522 lung) 18.3 µM | GI50 (MDA-MB-435) 19.6 µM | GI50 (MALME-3M melanoma) 4.73 µM | GI50 (HT29 colon) 15.9 µM | GI50 (KM12 colon) 30.2 µM | GI50 (LOX IMVI melanoma) 17.6 µM | GI50 (NCI/ADR-RES ovarian) 39.5 µM | GI50 (OVCAR-4 ovarian) 16.3 µM | GI50 (SNB-19 CNS) 15 µM
84.6 µM: TGI (COLO 205 colon)
active: GI50 (MCF7 breast) 0.098 µM
8.51 µM: TGI (MCF7 breast)
6.03 µM: TGI (T-47D breast)
47.9 µM: TGI (SK-MEL-5 melanoma)
2.23 µM: TGI (HOP-92 NSCLC)
94.8 µM: TGI (SNB-19 CNS)
23 µM: TGI (A498 renal)
31.8 µM: TGI (RXF 393 renal)
12 µM: TGI (SK-OV-3 ovarian)
15.3 µM: TGI (HL-60(TB) leukemia)
